Results: article PMC11839852, “Preclinical comparison of (radio)lanthanides using mass spectrometry and nuclear imaging techniques: biodistribution of lanthanide-based tumor-targeting agents and lanthanides in ionic form” (European Journal of Nuclear Medicine and Molecular Imaging, 2024)
Marks after values point to notes of the source that are not given here.

Key:
AR42J tumor cells = test: In vitro cell uptake of lanthanide chloride salts; type: cell-based, rat; settings: 1 h incubation
Description: (§1) A mixture of equal molar amounts of the lanthanide chloride salts (100 nM stock solutions of ^natLuCl3, ^natTbCl3, ^natGdCl3, and ^natEuCl3, diluted in saline with an adjusted pH value to 3.5‒4.0) was prepared to obtain a final concentration of 10 pmol/mL (2.5 pmol/mL per lanthanide salt) and tested with AR42J, PC-3 PIP and KB tumor cells according to the same protocol as described for the Ln-labeled biomolecules (Supplementary Material). Analogous in vitro cell uptake studies were also performed with lanthanide metal complexes of diethylenetriaminepentaacetic acid (DTPA, Sigma Aldrich Chemie, Steinheim, Germany) to obtain a final concentration of 10 pmol/mL (2.5 pmol/mL per lanthanide complex) (Supplementary Material).
(§2) Cell uptake studies were performed in triplicate in 3‒6 independent experiments and the results presented as the average ± standard deviation (SD). Data were normalized to the values measured for the ^175Lu-labeled tumor targeting agent or [^175Lu]LuCl3, which were set as 100% and zero was defined as 0%. Statistical significance of the normalized data was assessed for the comparison of the values obtained for terbium, gadolinium and europium analogues with those obtained for the lutetium counterparts by applying one-way ANOVA with the Dunnett’s post-test using GraphPad Prism software (version 8). A p-value of < 0.05 was considered statistically significant.
(§3) Methods: The same experimental setting as described for Ln-labeled biomolecules was applied to perform uptake and internalization studies with the lanthanide salts (LnCl3; Ln = ^natLu, ^natTb, ^natGd and ^natEu). The applied solution was a mixture of the four lanthanide salts yielding a final concentration of 0.4 µM. Of these mixtures, 25 μL were added to the corresponding well with tumor cells. The cells were incubated for 1 h and 4 h, respectively, at 37 °C and 5% CO2. After incubation, the tumor cells were treated as described for the Ln-labeled biomolecules and processed for the measurement with ICP-MS.

[1] = tested on: non-tumor-bearing immunocompetent FVB mice; test: Biodistribution of lanthanide chloride salts LnCl3 (multiplexed ICP-MS); type: in vivo; settings: for Tissue uptake: Blood / Tissue uptake: Bone / Tissue uptake: Brain / Tissue uptake: Heart / Tissue uptake: Intestines / Tissue uptake: Kidneys / Tissue uptake: Liver / Tissue uptake: Lung / Tissue uptake: Muscle / Tissue uptake: Pancreas / Tissue uptake: Salivary glands / Tissue uptake: Spleen / Tissue uptake: Stomach: non-tumor-bearing mice
PC-3 PIP tumor cells = test: In vitro cell uptake of lanthanide chloride salts; type: cell-based, human; settings: both incubation times
Description: as §1, §2, §3

[2] = 24 h p.i., estimated ratios (organ <0.5% ID/g)
[3] = 96 h p.i., estimated ratios (organ <0.5% ID/g)

[Cl][Gd]([Cl])[Cl] [[^157Gd]GdCl3] was tested, and the “Detected fraction after acid-wash compared with lutetium” value (AR42J tumor cells) was “significantly lower”, the “Organ ratios: Blood-to-bone” value ([1]; 1 h p.i.) was 0.37 ± 0.01 and the “Organ ratios: Blood-to-liver” value ([1]; 1 h p.i.) was 0.14 ± 0.02. The “Organ ratios: Liver-to-bone” value ([1]; 1 h p.i.) was 2.6 ± 0.4, the “Tissue uptake: Blood” value ([1]; 1 h p.i.) was 4.9 ± 0.3 % ID/g and the “Tissue uptake: Bone” value ([1]; 1 h p.i.) was 13 ± 1 % ID/g. For the same compound, the “Tissue uptake: Brain” value ([1]; 1 h p.i.) was 1.0 ± 0.6 % ID/g, the “Tissue uptake: Heart” value ([1]; 1 h p.i.) was 5.0 ± 1.7 % ID/g and the “Tissue uptake: Intestines” value ([1]; 1 h p.i.) was 2.5 ± 0.8 % ID/g. For the same compound, the “Tissue uptake: Kidneys” value ([1]; 1 h p.i.) was 8.0 ± 2.0 % ID/g, the “Tissue uptake: Liver” value ([1]; 1 h p.i.) was 34 ± 4 % ID/g and the “Tissue uptake: Lung” value ([1]; 1 h p.i.) was 4.8 ± 0.4 % ID/g. For the same compound, the “Tissue uptake: Muscle” value ([1]; 1 h p.i.) was 1.6 ± 0.6 % ID/g, the “Tissue uptake: Pancreas” value ([1]; 1 h p.i.) was 2.2 ± 0.4 % ID/g and the “Tissue uptake: Salivary glands” value ([1]; 1 h p.i.) was 2.8 ± 1.3 % ID/g. For the same compound, the “Tissue uptake: Spleen” value ([1]; 1 h p.i.) was 6.3 ± 0.9 % ID/g, the “Tissue uptake: Stomach” value ([1]; 1 h p.i.) was 6.2 ± 1.7 % ID/g and the “Organ ratios: Liver-to-bone” value ([1]; 24 h p.i.) was 2.2 ± 0.5. For the same compound, the “Organ ratios: Blood-to-bone” value [1, 2] was <0.03^*, the “Organ ratios: Blood-to-liver” value [1, 2] was <0.02^* and the “Tissue uptake: Blood” value ([1]; 24 h p.i.) was <0.5 % ID/g. The “Tissue uptake: Bone” value ([1]; 24 h p.i.) was 14 ± 2 % ID/g, the “Tissue uptake: Brain” value ([1]; 24 h p.i.) was <0.5 % ID/g and the “Tissue uptake: Heart” value ([1]; 24 h p.i.) was 1.2 ± 0.1 % ID/g. For the same compound, the “Tissue uptake: Intestines” value ([1]; 24 h p.i.) was 0.71 ± 0.04 % ID/g, the “Tissue uptake: Kidneys” value ([1]; 24 h p.i.) was 4.0 ± 0.9 % ID/g and the “Tissue uptake: Lung” value ([1]; 24 h p.i.) was 1.3 ± 0.1 % ID/g. For the same compound, the “Tissue uptake: Muscle” value ([1]; 24 h p.i.) was 1.1 ± 0.8 % ID/g, the “Tissue uptake: Pancreas” value ([1]; 24 h p.i.) was 0.61 ± 0.11 % ID/g and the “Tissue uptake: Salivary glands” value ([1]; 24 h p.i.) was 0.77 ± 0.16 % ID/g. The “Tissue uptake: Spleen” value ([1]; 24 h p.i.) was 5.7 ± 1.1 % ID/g, the “Tissue uptake: Stomach” value ([1]; 24 h p.i.) was 2.6 ± 0.1 % ID/g and the “Tissue uptake: Liver” value ([1]; 24 h p.i., listed as gadolinium) was 31 ± 6 % ID/g. The “Tissue uptake: Liver” value ([1]; 24 h p.i., listed as natGd) was ~ 31 % ID/g, the “Organ ratios: Liver-to-bone” value ([1]; 96 h p.i.) was 1.1 ± 0.2 and the “Organ ratios: Blood-to-bone” value [1, 3] was <0.03^*. The “Organ ratios: Blood-to-liver” value [1, 3] was <0.03^*, the “Tissue uptake: Blood” value ([1]; 96 h p.i.) was <0.5 % ID/g and the “Tissue uptake: Bone” value ([1]; 96 h p.i.) was 17 ± 3 % ID/g. For the same compound, the “Tissue uptake: Brain” value ([1]; 96 h p.i.) was <0.5 % ID/g, the “Tissue uptake: Heart” value ([1]; 96 h p.i.) was 1.2 ± 0.1 % ID/g and the “Tissue uptake: Intestines” value ([1]; 96 h p.i.) was 0.66 ± 0.07 % ID/g. The “Tissue uptake: Kidneys” value ([1]; 96 h p.i.) was 2.0 ± 0.1 % ID/g, the “Tissue uptake: Liver” value ([1]; 96 h p.i.) was 18 ± 1 % ID/g and the “Tissue uptake: Lung” value ([1]; 96 h p.i.) was 1.1 ± 0.2 % ID/g. The “Tissue uptake: Muscle” value ([1]; 96 h p.i.) was 0.51 ± 0.12 % ID/g, the “Tissue uptake: Pancreas” value ([1]; 96 h p.i.) was 0.53 ± 0.10 % ID/g and the “Tissue uptake: Salivary glands” value ([1]; 96 h p.i.) was 0.60 ± 0.08 % ID/g. The “Tissue uptake: Spleen” value ([1]; 96 h p.i.) was 3.6 ± 0.3 % ID/g, the “Tissue uptake: Stomach” value ([1]; 96 h p.i.) was 3.1 ± 0.8 % ID/g and the “Fraction retained after acid-wash compared with lutetium” value (PC-3 PIP tumor cells) was “higher”.
